Measurements: patent US12590093B2, “Indolo[2′,3′:3,4]pyrido[2,1-b]quinazoline compound and use thereof” (INSTITUTE OF MEDICINAL BIOTECHNOLOGY CHINESE ACADEMY OF …, priority 2019, dated 2026)

Key:
[1] = tested on: SR-BI; experiment: SR-BI up-regulation, luciferase reporter in SR-BI-LUC HepG2 cells; format: cell-based; conditions: Homo sapiens, 18 h, maximum up-regulation of luciferase activity versus DMSO, read-out: SR-BI max
Procedure: (§1) Experiments were conducted to detect whether the compounds of the disclosure can pharmacologically up-regulate the expression of ABCA1 and SR-BI. Firstly, ABCA1P-LUC HepG2 cells or SR-BI-LUC HepG2 cells in logarithmic growth phase were digested, diluted in cell culture medium, and counted. Cells were seeded into 96-well plates at a density of 5×10^5/ml (100 μL of the single-cell suspension per well). After cells fully adhered (about 6 h), the medium containing 10% FBS was removed, and the cells were gently washed with PBS. Serum free MEM-EBSS medium (200 μL per test well) and 2 μL of the compounds to be tested (at a final concentration of 10 μg/mL) were added to each test well, and meanwhile, DMSO at a corresponding concentration was added to the control well. After 18-24 h, the medium was removed. Cell Luciferase activity was measured by a method as described in the Luciferase Assay System. By optimizing the final concentration of DMSO, the treatment time of the compounds on the cells and the number of cells seeded into each well during the screening, the final screening conditions were determined as follows: each well is seeded with 5×10^4 cells, DMSO is added at a final concentration of 1%, and the sample is treated for 18 h.
(§2) The ratio of change of luciferase activity is calculated with the following formula: Ratio of change (%)=A/B×100;
(§3) wherein A is the luciferase activity (RLU) measured after the compound to be tested is added, and B is the luciferase activity (RLU) measured after the blank control (DMSO) is added. The luciferase activity of cells in each well was measured, and the dose-effect relationship between the concentration of the compound and the ratio of change of the luciferase activity was determined to calculate the EC50.

[2] = tested on: ABCA1; experiment: ABCA1 up-regulation, luciferase reporter in ABCA1P-LUC HepG2 cells; format: cell-based; conditions: Homo sapiens, 18 h, maximum up-regulation fold of luciferase activity versus DMSO, read-out: ABCA1 max
Procedure: as §1, §2, §3

[3] = molecular target: T1, LXRα (Homo sapiens, UniProt Q13133); experiment: Nuclear receptor reporter gene transient transfection (pBIND-hLXRs-LBD) in HepG2 cells, LXRα; format: cell-based; conditions: for LXRα max: HepG2 cells, reporter gene, 18-24 h; for LXRα agonist activity: result in words
T1 construct: expressed in transfected cells; host or cells: HepG2
T1 sequence (Q13133 209-447 limits assumed): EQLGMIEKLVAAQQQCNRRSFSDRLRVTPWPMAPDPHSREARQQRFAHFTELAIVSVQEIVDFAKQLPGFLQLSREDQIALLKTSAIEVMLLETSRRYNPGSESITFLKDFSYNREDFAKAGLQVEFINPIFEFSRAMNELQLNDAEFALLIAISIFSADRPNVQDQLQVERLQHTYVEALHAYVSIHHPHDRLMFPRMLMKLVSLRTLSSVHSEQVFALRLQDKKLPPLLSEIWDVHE
Procedure: (§4) HepG2 cells in logarithmic growth phase were digested, seeded into the white/clear 96-well plate at a density of 5×10^4 cells/well/100 μL until the cells grew to about 90% confluence and in good condition. 0.5 μL liposome (Lipofectamine® 2000) diluted with blank medium to 25 μL per well and incubated at room temperature for 5 min. The corresponding plasmids DNA (nuclear receptor plasmid:Gal4=1:10) were diluted in blank DMEM medium to 25 μL/well (mixing of two plasmids), then mixed evenly with the diluted liposome, and incubated for 20 min at 37° C. The DNA-liposome complex (50 μL per well) was added with the DMEM complete medium (100 μL per well) and mixed thoroughly to obtain a DNA-liposome complex cell culture. The cell medium was discarded, and replaced with the DNA-liposome complex cell culture (150 μL/well) (37° C., 5% CO2). After 6 h, the DNA-liposome complex cell culture medium was discarded, and 200 μL serum-free DMEM medium containing the compound at an appropriate concentration was added to each test well, and cultured for 18-24 h. The cell Luciferase activity was measured by the method as described in the Luciferase Assay System.

[4] = molecular target: T2, LXRβ (Homo sapiens, UniProt P55055); experiment: Nuclear receptor reporter gene transient transfection (pBIND-hLXRs-LBD) in HepG2 cells, LXRβ; format: cell-based; conditions: for LXRβ max: HepG2 cells, reporter gene, 18-24 h; for LXRβ agonist activity: result in words
T2 construct: expressed in transfected cells; host or cells: HepG2
T2 sequence (P55055 222-460 limits assumed): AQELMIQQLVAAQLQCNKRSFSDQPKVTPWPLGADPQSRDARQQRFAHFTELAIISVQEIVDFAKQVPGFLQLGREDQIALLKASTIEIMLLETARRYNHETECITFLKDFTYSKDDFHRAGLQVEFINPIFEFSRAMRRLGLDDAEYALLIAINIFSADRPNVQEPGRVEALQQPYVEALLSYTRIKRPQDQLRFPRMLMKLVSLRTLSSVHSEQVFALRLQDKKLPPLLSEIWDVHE
Procedure: as §4

[5] = background statement; cited from earlier work

LXRα max [3] | LXRα agonist activity [3] | LXRβ max [4] | LXRβ agonist activity [4] | Compound | maximal fold induction [1] | maximal fold induction [2] | oral bioavailability [5]
– | – | – | – | O=c1c2ccccc2nc2n1CCc1c-2[nH]c2c(Cl)cccc12 [TR10, 12-chloro-8,13-dihydroindolo[2′,3′:3,4]pyrido[2,1-b]quinazolin-5(7H)-one] | 1.72 | 1.43 | –
– | – | – | – | O=c1c2ccccc2cc2n1CCc1c-2[nH]c2ccccc12 [TY3, 8,13-dihydroindolo[2′,3′:3,4]pyrido[1,2-b]isoquinolin-5(7H)-one] | 1.41 | 1.97 | –
– | – | – | – | O=c1c2cccnc2nc2n1CCc1c-2[nH]c2c(F)cccc12 [TR13, 12-fluoro-8,13-dihydropyrido[2″,3″:4′,5′]pyrimido[1′,2′:1,2]pyrido[3,4-b]indol-5(7H)-one] | 1.72 | 1.54 | –
1.84 | showed agonist activity | 1.88 | showed agonist activity | O=c1c2ccccc2nc2c3[nH]c4ccccc4c3ccn12 [TR4, indolo[2′,3′:3,4]pyrido[2,1-b]quinazolin-5(13H)-one] | 1.74 | 1.84 | –
– | – | – | – | O=c1c2cccnc2nc2n1CCc1c-2[nH]c2c(Cl)cccc12 [TR11, 12-chloro-8,13-dihydropyrido[2″,3″:4′,5′]pyrimido[1′,2′:1,2]pyrido[3,4-b]indol-5(7H)-one] | 1.68 | 1.57 | –
– | – | – | – | c1ccc2c(c1)CN1CCc3c([nH]c4ccccc34)C1N2 (stereo not shown) [TR2, 5,7,8,13,13b,14-hexahydroindolo[2′,3′:3,4]pyrido[2,1-b]quinazoline] | 1.76 | 1.66 | –
– | – | – | – | O=c1c2ccccc2nc2n1CCc1c-2[nH]c2ccccc12 [RUT, Rutaecarpine, reference compound] | 2.12 | 2.09 | very low
2.03 | showed agonist activity | 1.69 | showed agonist activity | O=C1c2ccccc2N(C(=O)C(F)(F)F)C2c3[nH]c4ccccc4c3CCN12 (stereo not shown) [TR6, 14-(2,2,2-trifluoroacetyl)-8,13,13b,14-tetrahydroindolo[2′,3′:3,4]pyrido[2,1-b]quinazolin-5(7H)-one] | 1.56 | 1.96 | –
– | – | – | – | O=C1c2ccccc2OC2c3[nH]c4ccccc4c3CCN12 (stereo not shown) [TY4, 7,8,13,13b-tetrahydro-5H-benzo[5′,6′][1,3]oxazino[3′,2′:1,2]pyrido[3,4-13]indol-5-one] | 1.22 | 1.5 | –
– | – | – | – | Cc1cccc2c3c([nH]c12)-c1nc2ncccc2c(=O)n1CC3 [TR12, 12-methyl-8,13-dihydropyrido[2″,3″: 4′,5′]pyrimido[1′,2′:1,2]pyrido[3,4-b]indol-5(7H)-one] | 1.44 | 1.51 | –
– | – | – | – | O=c1c2cccnc2nc2n1CCc1c-2[nH]c2ccc(Cl)cc12 [TR14, 10-chloro-8,13-dihydropyrido[2″,3″: 4′,5′]pyrimido[1′,2′:1,2]pyrido[3,4-b]indol-5(7H)-one] | 1.57 | 1.48 | –
